Values quoted from earlier work in patent US20160296627A1, “INTRACAMERAL IMPLANT FOR TREATMENT OF AN OCULAR CONDITION” (Envisia Therapeutics Inc., priority 2013, published 2016).

Target: Cloned Human Ciliary Body FP Prostaglandin Receptor (Homo sapiens, UniProt P43088)
Details: Sharif et al. 2002, read-out: Functional Potency, EC50

Cloned Human Ciliary Body FP Prostaglandin Receptor, sequence (P43088 whole entry): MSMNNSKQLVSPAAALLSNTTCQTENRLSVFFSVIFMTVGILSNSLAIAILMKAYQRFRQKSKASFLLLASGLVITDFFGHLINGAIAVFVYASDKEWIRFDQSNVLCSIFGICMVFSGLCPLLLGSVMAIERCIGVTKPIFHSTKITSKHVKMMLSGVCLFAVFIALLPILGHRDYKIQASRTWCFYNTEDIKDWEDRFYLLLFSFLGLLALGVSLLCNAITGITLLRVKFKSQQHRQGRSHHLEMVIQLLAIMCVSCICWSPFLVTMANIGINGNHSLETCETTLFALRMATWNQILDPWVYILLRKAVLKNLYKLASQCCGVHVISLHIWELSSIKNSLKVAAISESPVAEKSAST

Row | EC50 [µM] | SMILES
1 | 0.694 | CCNC(=O)CCC/C=C\C[C@@H]1[C@@H](/C=C/[C@@H](O)CCc2ccccc2)[C@H](O)C[C@@H]1O [Bimatoprost]
2 | 0.0546 | O=C(O)CCC/C=C\C[C@@H]1[C@@H](CC[C@@H](O)CCc2ccccc2)[C@H](O)C[C@@H]1O [Latanoprost acid]
3 | 0.126 | CC(C)OC(=O)CCC/C=C\C[C@@H]1[C@@H](CC[C@@H](O)CCc2ccccc2)[C@H](O)C[C@@H]1O [Latanoprost]
4 | 0.0032 | O=C(O)CCCC=CCC1C(O)CC(O)C1C=CC(O)COc1cccc(C(F)(F)F)c1 (stereo not drawn) [Travoprost acid]
5 | 0.0423 | CC(C)OC(=O)CCC/C=C\C[C@@H]1[C@@H](/C=C/[C@@H](O)COc2cccc(C(F)(F)F)c2)[C@H](O)C[C@@H]1O [Travoprost, propan-2-yl 7-[3,5-dihydroxy-2-[3-hydroxy-4-[3-(trifluoromethyl)phenoxy]-but-1-enyl]-cyclopentyl]hept-5-enoate]

Row | SMILES | EC50 [µM]
6 | O=C(O)CCC/C=C\C[C@@H]1[C@@H](/C=C/[C@@H](O)CCc2ccccc2)[C@H](O)C[C@@H]1O [Bimatoprost acid] | 0.0058
